Measurements as given in ChEMBL document CHEMBL4138123, “Design, synthesis and biological evaluation of novel pyrazolochalcones as potential modulators of PI3K/Akt/mTOR pathway and inducers of apoptosis in breast cancer cells” (Eur J Med Chem, 2017).

Columns and labels:
Type in all cases: functional
NCI-H322M = assay: Cytotoxicity against human NCI-H322M cells assessed as growth inhibition after 48 hrs by sulforhodamine B assay; conditions: for CC50: read-out: LC50 (the source's name)
RXF 393 [1] = assay: Cytotoxicity against human RXF393 cells assessed as cell growth at 0.1 uM after 48 hrs by sulforhodamine B assay relative to control; conditions: RXF 393, 48 h, read-out: Activity
OVCAR-5 [2] = assay: Cytotoxicity against human OVCAR5 cells assessed as cell growth at 0.01 uM after 48 hrs by sulforhodamine B assay relative to control; conditions: OVCAR-5, 48 h, read-out: Activity
UO-31 [3] = assay: Cytotoxicity against human UO31 cells assessed as cell growth at 1 uM after 48 hrs by sulforhodamine B assay relative to control; conditions: UO-31, 48 h, read-out: Activity
HT-29 [4] = assay: Cytotoxicity against human HT-29 cells assessed as cell growth at 0.1 uM after 48 hrs by sulforhodamine B assay relative to control; conditions: HT-29, 48 h, read-out: Activity
SNB-19 = assay: Cytotoxicity against human SNB19 cells assessed as cell growth at 100 uM after 48 hrs by sulforhodamine B assay relative to control; conditions: SNB-19, 48 h, read-out: Activity
SK-MEL-28 = assay: Cytotoxicity against human SK-MEL-28 cells assessed as cell growth at 0.1 uM after 48 hrs by sulforhodamine B assay relative to control; conditions: SK-MEL-28, 48 h, read-out: Activity
UACC-257 = assay: Cytotoxicity against human UACC257 cells assessed as cell growth at 100 uM after 48 hrs by sulforhodamine B assay relative to control; conditions: UACC-257, 48 h, read-out: Activity
OVCAR-8 [5] = assay: Cytotoxicity against human OVCAR8 cells assessed as cell growth at 1 uM after 48 hrs by sulforhodamine B assay relative to control; conditions: OVCAR-8, 48 h, read-out: Activity
HT-29 [6] = assay: Cytotoxicity against human HT-29 cells assessed as cell growth at 10 uM after 48 hrs by sulforhodamine B assay relative to control; conditions: HT-29, 48 h, read-out: Activity
UO-31 [7] = assay: Cytotoxicity against human UO31 cells assessed as cell growth at 0.01 uM after 48 hrs by sulforhodamine B assay relative to control; conditions: UO-31, 48 h, read-out: Activity
MDA-MB-231 = assay: Cytotoxicity against human MDA-MB-231 cells assessed as cell growth at 0.01 uM after 48 hrs by sulforhodamine B assay relative to control; conditions: MDA-MB-231, 48 h, read-out: Activity
OVCAR-3 = assay: Cytotoxicity against human OVCAR3 cells assessed as cell growth at 10 uM after 48 hrs by sulforhodamine B assay relative to control; conditions: OVCAR-3, 48 h, read-out: Activity
OVCAR-8 [8] = assay: Cytotoxicity against human OVCAR8 cells assessed as cell growth at 0.01 uM after 48 hrs by sulforhodamine B assay relative to control; conditions: OVCAR-8, 48 h, read-out: Activity
RXF 393 [9] = assay: Cytotoxicity against human RXF393 cells assessed as cell growth at 100 uM after 48 hrs by sulforhodamine B assay relative to control; conditions: RXF 393, 48 h, read-out: Activity
Malme-3M = assay: Cytotoxicity against human MALME-3M cells assessed as growth inhibition after 48 hrs by sulforhodamine B assay
OVCAR-5 [10] = assay: Cytotoxicity against human OVCAR5 cells assessed as growth inhibition after 48 hrs by sulforhodamine B assay; conditions: OVCAR-5, 48 h
U-251 = assay: Cytotoxicity against human U251 cells assessed as cell growth at 10 uM after 48 hrs by sulforhodamine B assay relative to control; conditions: U-251, 48 h, read-out: Activity
MCF7 [11] = assay: Cytotoxicity against human MCF7 cells assessed as cell growth at 0.1 uM after 48 hrs by sulforhodamine B assay relative to control; conditions: MCF7, 48 h, read-out: Activity
HCT-116 [12] = assay: Cytotoxicity against human HCT116 cells assessed as growth inhibition after 48 hrs by sulforhodamine B assay; conditions: HCT-116, 48 h
HT-29 [13] = assay: Cytotoxicity against human HT-29 cells assessed as cell growth at 1 uM after 48 hrs by sulforhodamine B assay relative to control; conditions: HT-29, 48 h, read-out: Activity
OVCAR-4 = assay: Cytotoxicity against human OVCAR4 cells assessed as growth inhibition after 48 hrs by sulforhodamine B assay; conditions: OVCAR-4, 48 h
SF-268 [14] = assay: Cytotoxicity against human SF268 cells assessed as cell growth at 0.1 uM after 48 hrs by sulforhodamine B assay relative to control; conditions: SF-268, 48 h, read-out: Activity
MCF7 [15] = assay: Cytotoxicity against human MCF7 cells assessed as cell growth at 1 uM after 48 hrs by sulforhodamine B assay relative to control; conditions: MCF7, 48 h, read-out: Activity
SK-OV-3 = assay: Cytotoxicity against human SKOV3 cells assessed as cell growth at 100 uM after 48 hrs by sulforhodamine B assay relative to control; conditions: SK-OV-3, 48 h, read-out: Activity
A498 = assay: Cytotoxicity against human A498 cells assessed as cell growth at 0.1 uM after 48 hrs by sulforhodamine B assay relative to control; conditions: A498, 48 h, read-out: Activity
K562 = assay: Cytotoxicity against human K562 cells assessed as cell growth at 0.01 uM after 48 hrs by sulforhodamine B assay relative to control; conditions: K562, 48 h, read-out: Activity
SF-539 = assay: Cytotoxicity against human SF539 cells assessed as cell growth at 100 uM after 48 hrs by sulforhodamine B assay relative to control; conditions: SF-539, 48 h, read-out: Activity
HCT-116 [16] = assay: Cytotoxicity against human HCT116 cells assessed as cell growth at 1 uM after 48 hrs by sulforhodamine B assay relative to control; conditions: HCT-116, 48 h, read-out: Activity
COLO 205 [17] = assay: Cytotoxicity against human COLO205 cells assessed as cell growth at 100 uM after 48 hrs by sulforhodamine B assay relative to control; conditions: COLO 205, 48 h, read-out: Activity
COLO 205 [18] = assay: Cytotoxicity against human COLO205 cells assessed as cell growth at 1 uM after 48 hrs by sulforhodamine B assay relative to control; conditions: COLO 205, 48 h, read-out: Activity
786-0 = assay: Cytotoxicity against human 786-0 cells assessed as growth inhibition after 48 hrs by sulforhodamine B assay; conditions: 786-0, 48 h
OVCAR-8 [19] = assay: Cytotoxicity against human OVCAR8 cells assessed as growth inhibition after 48 hrs by sulforhodamine B assay; conditions: OVCAR-8, 48 h
SR = assay: Cytotoxicity against human SR cells assessed as cell growth at 100 uM after 48 hrs by sulforhodamine B assay relative to control; conditions: read-out: Activity
SF-268 [20] = assay: Cytotoxicity against human SF268 cells assessed as cell growth at 0.01 uM after 48 hrs by sulforhodamine B assay relative to control; conditions: SF-268, 48 h, read-out: Activity
SW-620 = assay: Cytotoxicity against human SW620 cells assessed as cell growth at 0.01 uM after 48 hrs by sulforhodamine B assay relative to control; conditions: SW-620, 48 h, read-out: Activity

## COc1cc(-c2cc(/C=C/C(=O)c3ccc(F)c(F)c3)[nH]n2)cc(OC)c1OC
NCI-H322M
  TGI: > 100 µM
  CC50: > 100 µM
RXF 393 [1]
  growth at 0.1 µM: 96%
OVCAR-5 [2]
  growth at 0.01 µM: 99%
UO-31 [3]
  growth at 1 µM: 84%
HT-29 [4]
  growth at 0.1 µM: 102%
SNB-19
  growth at 100 µM: 22%
SK-MEL-28
  growth at 0.1 µM: 102%
UACC-257
  growth at 100 µM: -37%
OVCAR-8 [5]
  growth at 1 µM: 89%
HT-29 [6]
  growth at 10 µM: -24%
UO-31 [7]
  growth at 0.01 µM: 90%
MDA-MB-231
  growth at 0.01 µM: 94%
OVCAR-3
  growth at 10 µM: -24%
OVCAR-8 [8]
  growth at 0.01 µM: 95%
RXF 393 [9]
  growth at 100 µM: -61%
Malme-3M
  LC50: > 100 µM
  TGI: 9.4 µM
OVCAR-5 [10]
  LC50: > 100 µM
  TGI: 33.8 µM
U-251
  growth at 10 µM: 7%
MCF7 [11]
  growth at 0.1 µM: 98%
HCT-116 [12]
  LC50: 94.2 µM
  TGI: 13.9 µM
HT-29 [13]
  growth at 1 µM: 103%
OVCAR-4
  LC50: > 100 µM
  TGI: 71.8 µM
SF-268 [14]
  growth at 0.1 µM: 94%
MCF7 [15]
  growth at 1 µM: 99%
SK-OV-3
  growth at 100 µM: -5%
A498
  growth at 0.1 µM: 96%
K562
  growth at 0.01 µM: 100%
SF-539
  growth at 100 µM: -63%
HCT-116 [16]
  growth at 1 µM: 113%
COLO 205 [17]
  growth at 100 µM: -99%
COLO 205 [18]
  growth at 1 µM: 92%
786-0
  LC50: > 100 µM
  TGI: 15.7 µM
OVCAR-8 [19]
  LC50: > 100 µM
  TGI: 17.3 µM
SR
  growth at 100 µM: 8%
SF-268 [20]
  growth at 0.01 µM: 94%
SW-620
  growth at 0.01 µM: 95%

## COc1ccc(C(=O)/C=C/c2cc(-c3ccc4c(c3)OCO4)n[nH]2)cc1OC
NCI-H322M
  TGI: 7.3 µM
  CC50: 29.6 µM
RXF 393 [1]
  growth at 0.1 µM: 97%
OVCAR-5 [2]
  growth at 0.01 µM: 96%
UO-31 [3]
  growth at 1 µM: 79%
HT-29 [4]
  growth at 0.1 µM: 92%
SNB-19
  growth at 100 µM: -95%
SK-MEL-28
  growth at 0.1 µM: 104%
UACC-257
  growth at 100 µM: -81%
OVCAR-8 [5]
  growth at 1 µM: 89%
HT-29 [6]
  growth at 10 µM: 2%
UO-31 [7]
  growth at 0.01 µM: 86%
MDA-MB-231
  growth at 0.01 µM: 102%
OVCAR-3
  growth at 10 µM: -47%
OVCAR-8 [8]
  growth at 0.01 µM: 99%
RXF 393 [9]
  growth at 100 µM: -95%
Malme-3M
  LC50: 61.8 µM
  TGI: 22.8 µM
OVCAR-5 [10]
  LC50: > 100 µM
  TGI: 23.2 µM
U-251
  growth at 10 µM: -25%
MCF7 [11]
  growth at 0.1 µM: 94%
HCT-116 [12]
  LC50: 56.2 µM
  TGI: 7.99 µM
HT-29 [13]
  growth at 1 µM: 93%
OVCAR-4
  LC50: > 100 µM
  TGI: 40.3 µM
SF-268 [14]
  growth at 0.1 µM: 94%
MCF7 [15]
  growth at 1 µM: 88%
SK-OV-3
  growth at 100 µM: -23%
A498
  growth at 0.1 µM: 80%
K562
  growth at 0.01 µM: 96%
SF-539
  growth at 100 µM: -83%
HCT-116 [16]
  growth at 1 µM: 87%
COLO 205 [17]
  growth at 100 µM: -83%
COLO 205 [18]
  growth at 1 µM: 101%
786-0
  LC50: 42.3 µM
  TGI: 11.4 µM
OVCAR-8 [19]
  LC50: 40.2 µM
  TGI: 5.82 µM
SR
  growth at 100 µM: -35%
SF-268 [20]
  growth at 0.01 µM: 93%
SW-620
  growth at 0.01 µM: 100%

## COc1ccc(-c2cc(/C=C/C(=O)c3ccc(N)cc3)[nH]n2)cc1OC
NCI-H322M
  GI50: 4.34 µM
  TGI: 16.5 µM
  CC50: 46.2 µM
RXF 393 [1]
  growth at 0.1 µM: 92%
OVCAR-5 [2]
  growth at 0.01 µM: 91%
UO-31 [3]
  growth at 1 µM: 86%
HT-29 [4]
  growth at 0.1 µM: 107%
SNB-19
  growth at 100 µM: -91%
SK-MEL-28
  growth at 0.1 µM: 93%
UACC-257
  growth at 100 µM: -96%
OVCAR-8 [5]
  growth at 1 µM: 93%
HT-29 [6]
  growth at 10 µM: -19%
UO-31 [7]
  growth at 0.01 µM: 92%
MDA-MB-231
  growth at 0.01 µM: 113%
OVCAR-3
  growth at 10 µM: -56%
OVCAR-8 [8]
  growth at 0.01 µM: 98%
RXF 393 [9]
  growth at 100 µM: -95%
Malme-3M
  GI50: 6.72 µM
  LC50: 59.2 µM
  TGI: 21.2 µM
OVCAR-5 [10]
  GI50: 2.62 µM
  LC50: 36.3 µM
  TGI: 7.94 µM
U-251
  growth at 10 µM: -68%
MCF7 [11]
  growth at 0.1 µM: 89%
HCT-116 [12]
  GI50: 1.71 µM
  LC50: 7.19 µM
  TGI: 3.51 µM
HT-29 [13]
  growth at 1 µM: 99%
OVCAR-4
  GI50: 2.68 µM
  LC50: 40.5 µM
  TGI: 15.8 µM
SF-268 [14]
  growth at 0.1 µM: 101%
MCF7 [15]
  growth at 1 µM: 81%
SK-OV-3
  growth at 100 µM: -99%
A498
  growth at 0.1 µM: 80%
K562
  growth at 0.01 µM: 99%
SF-539
  growth at 100 µM: -92%
HCT-116 [16]
  growth at 1 µM: 87%
COLO 205 [17]
  growth at 100 µM: -78%
COLO 205 [18]
  growth at 1 µM: 98%
786-0
  GI50: 1.88 µM
  LC50: 10.8 µM
  TGI: 4.39 µM
OVCAR-8 [19]
  GI50: 2.95 µM
  LC50: 39 µM
  TGI: 10.5 µM
SR
  growth at 100 µM: -5%
SF-268 [20]
  growth at 0.01 µM: 100%
SW-620
  growth at 0.01 µM: 99%
